EP4159743A1, “METHODS FOR PREPARING PYRIDAZINE COMPOUNDS” (ETH Zurich, priority 2021, dated 2023)

Assay: Kinetics measurements, control sample: decrease in absorption of the tetrazine alone over time
Format: physicochemical
Conditions: absorption at 525 nm monitored over time, trypsin buffer
Description: For kinetic measurements, 196 µL trypsin buffer was added with 2 µL of a 10 mM stock solution of compound 1 in DMSO (final concentration 100 µM) and 2 µL of a 10 mM stock solution of 3,6-di-2-pyridyl-1,2,4,5-tetrazine in DMSO (final concentration 100 µM) in a quartz cuvette. The sample was mixed well and absorption at 525 nm was monitored over time, measuring every minute. Measurements were done in triplicates. […] This was subtracted from the kinetic measurements. The obtained absorbance values were converted to concentrations through a standard curve and were plotted as the reciprocal concentration of the tetrazine reagent versus time to yield a second-order rate constant. Data analysis and statistical analysis were done in Microsoft Excel (2016) and Prism 7 (GraphPad).

c1ccc(-c2nnc(-c3ccccn3)nn2)nc1 [3,6-di-2-pyridyl-1,2,4,5-tetrazine]
rate constant (decrease in absorption over time, fitted to a first-order reaction equation): 2.96e-05 s⁻¹
